Source: paper PMC7515829, “HKDC1 C-terminal based peptides inhibit extranodal natural killer/T-cell lymphoma by modulation of mitochondrial function and EBV suppression” (Leukemia, 2020)

Columns and labels:
[1] = test system: SNK6 cells; test: Peptide delivery efficiency, 125I-labeled uptake assay; type: in vitro ADME, human; conditions: 125I label on tyrosine, 0.5 µM peptide, 6-h incubation, media and cells counted by liquid scintillation counter, mean, n = 4 (Fig S1)
Excerpt: We investigated the potential role of HKDC1-based peptides in ENKTL cells that were isolated from the MNCs of ENKTL patients or SNK6 cell line. Three different kinds of HKDC1-based targeting peptides, including the last 15 aa at either the N-terminal (HKN15) or C-terminal (HKC15), or the last eight aa at the C-terminal (HKC8) were selected; four different kinds of cell-penetrating sequences were employed to deliver the HKDC1-based peptides, including Antp (a 16 penetrating residue long sequence from the Drosophila antennapedia-homeodomain), penetration-accelerating segment, TAT (HIV-1 TAT sequence), and Tf (the Tf receptor (TfR) internalization sequence) sequences. All of the aa with the D-configuration (marked as D) were synthesized as retro-inverso peptides. […] We then evaluated the toxic effect of two peptides (including Tf-D-HKC15 and Tf-D-HKC8) on different kinds of primary and cancer cell lines (see details in Table 2). […] We also evaluated the peptide delivery efficiency using ^125I-labeled uptake assay for both Tf-D-HKC8 and Tf-D-HKC15 peptides. […]
Figure S1. […] 0.5µM each of peptide was incubated with SNK6 cells for 6 hours, then both culture media and SNK6 cells were harvested for radioactivity assay using Liquid Scintillation Counter. n=4. *, P<0.05, vs Intracellular group. Results were expressed as mean ± SEM.

[2] = test system: SNK6 cells; test: γH2AX formation (western blot); type: cell-based, human; conditions: 0.5 µM peptide, 6 h, vs CTL, n = 5 (Fig. 3d)
Description: (§1) Measurement of DNA breaks. 8-OHdG formation was measured using an OxiSelect™ Oxidative DNA Damage ELISA Kit (Cat No. STA320, from Cell Biolabs Inc.) per manufacturers’ instructions. The formation of γH2AX was measured from nuclear extracts by western blotting using H2AX as the input control (8).

[3] = test system: EBV EA-D; test: Protein level in xenograft tumor tissue (western blot); type: in vivo, mouse; conditions: SNK6 xenograft, nude mice; intratumoral 50 µM peptide every 2 days from day ~18; tissue day 50; western blot vs CTL; n = 5
Excerpt: (§2) Biomedical analysis of tumor tissues.

[4] = test system: P-gp; test: as above; type: in vivo, mouse; conditions: SNK6 xenograft, nude mice; intratumoral 50 µM peptide every 2 days from day ~18; tissue day 50; western blot vs CTL; n = 5
Excerpt: as §2

[5] = test system: Namalwa; test: Cell death IC50 by PI staining/FACS; type: cell-based; conditions: Human Burkitt’s lymphoma/EBV(+), 0.1–15 µM, 6 h (suspension) or 12 h (adherent cells), mean ± SEM, read-out: Peptide IC50 (µM), cell death, Namalwa
Description: (§3) Measurement of apoptosis and cell death. Apoptosis was evaluated by TUNEL assay using the In Situ Cell Death Detection Kit™ (Roche). Cells were fixed in 4% paraformaldehyde and labeled with TUNEL reagents. Stained cells were photographed by a fluorescence microscope (11). For cell death analysis, the propidium iodide (PI) staining was performed by addition of 6.25 µg/ml of PI to the cells, and cell death was immediately evaluated by FACS analysis (3).

[6] = test system: HMECs; test: Cell death IC50 by PI staining/FACS; type: cell-based; conditions: Human mammary epithelial cells/EBV(−), 0.1–15 µM, 6 h (suspension) or 12 h (adherent cells), mean ± SEM, read-out: Peptide IC50 (µM), cell death, HMECs
Description: as §3

[7] = test system: THP1; test: Cell death IC50 by PI staining/FACS; type: cell-based; conditions: Human monocytic leukemia/EBV(−), 0.1–15 µM, 6 h (suspension) or 12 h (adherent cells), mean ± SEM, read-out: Peptide IC50 (µM), cell death, THP1
Description: as §3

[8] = test system: SNT8; test: Cell death IC50 by PI staining/FACS; type: cell-based; conditions: Human natural killer/T-cell lymphoma/EBV(+), 0.1–15 µM, 6 h (suspension) or 12 h (adherent cells), mean ± SEM, read-out: Peptide IC50 (µM), cell death, SNT8
Description: as §3

[9] = test system: MCF7; test: Cell death IC50 by PI staining/FACS; type: cell-based; conditions: Human breast adenocarcinoma/EBV(−), 0.1–15 µM, 6 h (suspension) or 12 h (adherent cells), mean ± SEM, read-out: Peptide IC50 (µM), cell death, MCF7
Description: as §3

[10] = test system: HL-60; test: Cell death IC50 by PI staining/FACS; type: cell-based; conditions: Human acute promyelocytic leukemia/EBV(−), 0.1–15 µM, 6 h (suspension) or 12 h (adherent cells), mean ± SEM, read-out: Peptide IC50 (µM), cell death, HL-60
Description: as §3

[11] = test system: RPMI 8226; test: Cell death IC50 by PI staining/FACS; type: cell-based; conditions: Human B lymphoblast/EBV(−), 0.1–15 µM, 6 h (suspension) or 12 h (adherent cells), mean ± SEM, read-out: Peptide IC50 (µM), cell death, RPMI 8226
Description: as §3

[12] = test system: HepG2; test: Cell death IC50 by PI staining/FACS; type: cell-based; conditions: Human hepatocellular carcinoma/EBV(−), 0.1–15 µM, 6 h (suspension) or 12 h (adherent cells), mean ± SEM, read-out: Peptide IC50 (µM), cell death, HepG2
Description: as §3

[13] = test system: SW620; test: Cell death IC50 by PI staining/FACS; type: cell-based; conditions: Human colorectal adenocarcinoma/EBV(−), 0.1–15 µM, 6 h (suspension) or 12 h (adherent cells), mean ± SEM, read-out: Peptide IC50 (µM), cell death, SW620
Description: as §3

[14] = test system: Healthy MNCs; test: Cell death IC50 by PI staining/FACS; type: cell-based; conditions: Healthy human mononuclear cells/EBV(−), 0.1–15 µM, 6 h (suspension) or 12 h (adherent cells), mean ± SEM, read-out: Peptide IC50 (µM), cell death, Healthy MNCs
Description: as §3

[15] = test system: SNK6 cells; test: 8-OHdG formation (DNA damage ELISA); type: cell-based, human; conditions: 0.5 µM peptide, 6 h, vs CTL, n = 5 (Fig. 3c)
Description: as §1

[16] = test system: SNK6 cells; test: Apoptosis rate by TUNEL assay; type: cell-based, human; conditions: 0.5 µM peptide, 6 h, compared with CTL group, n = 5 (Fig. 4h)
Description: as §3

[17] = test system: EBV Zta; test: Protein level in xenograft tumor tissue (western blot); type: in vivo; conditions: SNK6 xenograft, Balb/c athymic nude mice; intratumoral 50 µM peptide, 20 µl per tumor, every 2 days from day ~18; tissue day 50; western blot vs CTL; n = 5
Excerpt: as §2

| Substance | peptide delivered into SNK6 cells (delivery efficiency) [1] [%] | γH2AX formation [2] [%] | EBV EA-D protein in tumor [3] [%] | P-gp protein in tumor [4] [%] | IC50 [5] [µM] | IC50 [6] [µM] | IC50 [7] [µM] | IC50 [8] [µM] | IC50 [9] [µM] | IC50 [10] [µM] | IC50 [11] [µM] | IC50 [12] [µM] | IC50 [13] [µM] | IC50 [14] [µM] | 8-OHdG formation [15] [%] | apoptosis rate increase [16] [fold] | EBV Zta protein levels in tumor [17] [%] |
| --- | --- | --- | --- | --- | --- | --- | --- | --- | --- | --- | --- | --- | --- | --- | --- | --- | --- |
| HAIYPRH-LQQAQKEN [Tf-D-HKC8] | 53.4 | 189 | 38 | 17 | 0.7 ± 0.4 | > 15 | 1.8 ± 0.6 | 0.6 ± 0.3 | > 15 | 1.7 ± 0.4 | 1.3 ± 0.6 | > 15 | 10.2 ± 0.7 | > 15 | 209 | 11.4 | 32 |
| HAIYPRH-ITAVAKRLQQAQKEN [Tf-D-HKC15] | 35.6 | 144 | 61 | 48 | 0.9 ± 0.3 | > 15 | 2.3 ± 0.5 | 1.1 ± 0.4 | > 15 | 2.2 ± 0.6 | 1.9 ± 0.7 | > 15 | 12.5 ± 0.8 | > 15 | 157 | 2.91 | 65 |
